This is an account of results in ChEMBL document CHEMBL1123520, “Digitoxigenin 3-O-beta-D-furanosides” (1986).

Format in all cases: functional
The species named for assay [1] is Cavia porcellus. Briefly: Dose required to produce 50% increase in developed tension of inotropic effect in guinea pig atria.
For assay [2], the species on record is Cavia porcellus. Description: Dose required to produce 75% increase in developed tension of inotropic effect in guinea pig atria.
The species named for assay [3] is Cavia porcellus. Description: Dose required to produce negative inotropic (NI) or arrhythmia (A) effect in Guinea pig atria.
For assay [4], the species on record is Cavia porcellus. Description: Dose required to produce negative inotropic (NI) effect in Guinea pig atria.
The species entered for assay [5] is Cavia porcellus. Briefly: Dose required to produce negative inotropic (NI) effect in Guinea pig atria; MI is Minimal Activity.
The species named for assay [6] is Cavia porcellus. Description: Dose required to produce 75% increase in developed tension of inotropic effect in guinea pig atria; MI is Minimal Activity.
Assay [7] is filed under the species Cavia porcellus. Briefly: Dose required to produce arrhythmia (A) on Guinea pig atria.

Structures are written as SMILES.

For the compound `C[C@]12CC[C@H](O[C@@H]3O[C@H](CN=[N+]=[N-])[C@@H](O)[C@H]3O)C[C@@H]1CC[C@@H]1[C@@H]2CC[C@]2(C)[C@@H](C3=CC(=O)OC3)CC[C@@]12O`, the Dose in the assay listed under Cavia porcellus [1] amounted to 0.25 µM; in the assay filed under Cavia porcellus [2] it was 0.43 µM; in the assay listed under Cavia porcellus [3], 1 µM.

Take `CC(=O)O[C@H]1[C@H](OC2CC[C@@]3(C)C(CC[C@@H]4[C@@H]3CC[C@]3(C)[C@@H](C5=CC(=O)OC5)CC[C@@]43O)C2)O[C@H]2[C@@H]1OC[C@H]2OC(C)=O` (stereo not given in full): the Dose was found to be 0.39 µM in the assay listed under Cavia porcellus [1], 0.53 µM in the assay filed under Cavia porcellus [2] and 1 µM in the assay listed under Cavia porcellus [3].

Turning to `C[C@H]1O[C@@H](O[C@H]2[C@@H](O)C[C@H](O[C@H]3[C@@H](O)C[C@H](O[C@H]4CC[C@@]5(C)[C@H](CC[C@@H]6[C@@H]5C[C@@H](O)[C@]5(C)[C@@H](C7=CC(=O)OC7)CC[C@]65O)C4)O[C@@H]3C)O[C@@H]2C)C[C@H](O)[C@@H]1O` [DIGOXIN], the Dose in the assay listed under Cavia porcellus [4] is 2.5 µM; in the assay listed under Cavia porcellus [1] it was 0.42 µM; in the assay filed under Cavia porcellus [2] it was 0.82 µM.

As for `C[C@]12CC[C@H](O)C[C@H]1CC[C@@H]1[C@@H]2CC[C@]2(C)[C@@H](C3=CC(=O)OC3)CC[C@]12O` [DIGITOXIGENIN], the Dose in the assay listed under Cavia porcellus [4] was determined as 2.5 µM; in the assay filed under Cavia porcellus [1] it was 0.38 µM; in the assay filed under Cavia porcellus [2], 0.64 µM.

For `C[C@]12CCC(O[C@@H]3O[C@H]4[C@H](OC[C@H]4O)[C@H]3O)CC1CC[C@@H]1[C@@H]2CC[C@]2(C)[C@@H](C3=CC(=O)OC3)CC[C@@]12O` (stereo not given in full), the Dose in the assay filed under Cavia porcellus [1] was 10 µM; in the assay filed under Cavia porcellus [5], “Minimal activity”; in the assay listed under Cavia porcellus [6], “Minimal activity”.

Take `C[C@]12CC[C@H](O[C@@H]3O[C@H](CO)[C@@H](O)[C@H]3O)C[C@@H]1CC[C@@H]1[C@@H]2CC[C@]2(C)[C@@H](C3=CC(=O)OC3)CC[C@@]12O`: the Dose in the assay filed under Cavia porcellus [4] was found to be 2.5 µM; in the assay listed under Cavia porcellus [1], 0.36 µM; in the assay listed under Cavia porcellus [2], 0.64 µM.

Take `C[C@]12CCC(O[C@@H]3O[C@H]4[C@H](NC[C@H]4O)[C@H]3O)CC1CC[C@@H]1[C@@H]2CC[C@]2(C)[C@@H](C3=CC(=O)OC3)CC[C@@]12O` (stereo not given in full): the Dose in the assay filed under Cavia porcellus [4] was found to be 2 µM; in the assay filed under Cavia porcellus [7], 1.5 µM; in the assay listed under Cavia porcellus [1] it was 0.5 µM; in the assay filed under Cavia porcellus [2], 0.86 µM.

`CC(=O)O[C@H]1[C@H](OC2CC[C@@]3(C)C(CCC4[C@@H]3CC[C@]3(C)[C@@H](C5=CC(=O)OC5)CC[C@@]43O)C2)O[C@H](CN=[N+]=[N-])[C@H]1OC(C)=O` (stereo not given in full): the Dose in the assay listed under Cavia porcellus [4] was determined as 2.5 µM; in the assay filed under Cavia porcellus [1], 0.3 µM; in the assay filed under Cavia porcellus [2], 0.44 µM.

As to `CC(=O)OC[C@H]1O[C@@H](OC2CC[C@@]3(C)C(CC[C@@H]4[C@@H]3CC[C@]3(C)[C@@H](C5=CC(=O)OC5)CC[C@@]43O)C2)[C@H](OC(C)=O)[C@@H]1OC(C)=O` (stereo not given in full), the Dose is 1.9 µM in the assay filed under Cavia porcellus [1], “Minimal activity” in the assay listed under Cavia porcellus [5] and 3 µM in the assay listed under Cavia porcellus [2].

Turning to `CC(=O)O[C@H]1[C@H](OC2CC[C@@]3(C)C(CC[C@@H]4[C@@H]3CC[C@]3(C)[C@@H](C5=CC(=O)OC5)CC[C@@]43O)C2)O[C@H]2[C@@H]1N(C(=O)C(F)(F)F)C[C@H]2OC(C)=O` (stereo not given in full), the Dose in the assay listed under Cavia porcellus [4] stood at 1 µM; in the assay listed under Cavia porcellus [7], 0.75 µM; in the assay listed under Cavia porcellus [1] it was 0.54 µM; in the assay listed under Cavia porcellus [2] it was 0.65 µM.

Turning to `C[C@]12CC[C@H](O[C@@H]3O[C@H](CN)[C@@H](O)[C@H]3O)C[C@@H]1CC[C@@H]1[C@@H]2CC[C@]2(C)[C@@H](C3=CC(=O)OC3)CC[C@@]12O`, the Dose stood at 0.26 µM in the assay filed under Cavia porcellus [1], 0.35 µM in the assay listed under Cavia porcellus [2] and 5 µM in the assay listed under Cavia porcellus [3].
